The source made the active and inactive calls.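 The calls were made as follows: active = compounds giving half or more protection of infected cells from virus-caused growth loss, again on retest; inactive = the rest.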
Tested on: CEM cells HIV-1 protection, formazan growth assay
Assay: NCI AIDS Antiviral Assay
Conditions: for IC50: measured here: growth of uninfected CEM cells
How it was run: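 Human CEM cells, uninfected and HIV-1-infected, exposed to five drug concentrations; growth measured by soluble formazan assay and scored as percent protection from infection, with protecting compounds retested.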

| Compound | EC50 | IC50 | outcome |
| --- | --- | --- | --- |
| C#CC(C)(C)Oc1cc(O)c2c(=O)c3ccccc3n(C)c2c1 | > 23.4 µM | > 23.4 µM | – |
| COc1ccc(-c2c(C(=O)O)oc3cc(O)ccc3c2=O)cc1OC | > 200 µM | > 200 µM | – |
| CCCCCCN(CCCCCC)CC(=O)Nc1ccc(S(=O)(=O)c2ccc(NC(=O)CN(CCCCCC)CCCCCC)cc2)cc1 | > 200 µM | 11.5 µM | – |
| COc1ccc(N2C(=O)C(=O)N(c3ccccc3[N+](=O)[O-])C2=S)cc1 | > 200 µM | 27.5 µM | – |
| CC1=CC(=C(c2ccc(N)cc2)c2ccc(N)cc2)C=CC1=N | – | – | inactive |
| CCCCCCCCCCCCCCCC[NH][Ge]([NH]CCCCCCCCCCCCCCCC)([NH]CCCCCCCCCCCCCCCC)[NH]CCCCCCCCCCCCCCCC | > 7.41 µM | 4.79 µM | – |
| Cc1cc(S(=O)(=O)Nc2n[nH]c(Nc3ccccc3)n2)c(SCC(=O)O)cc1Cl | > 200 µM | > 200 µM | – |
| COCOCC1CCCN1CN1CCC[C@H]1COCOC (some centres not stated) | > 200 µM | 107 µM | – |
| Nc1nc2c(ccc3ccccc32)[nH]1 | – | – | inactive |
| CC(C)CCC[C@@H](C)C1CCC2[C@@H]3CC=C4C[C@@H](OC(=O)CCC(=O)O)CC[C@]4(C)C3CC[C@@]21C (some centres not stated) | – | – | inactive |
| O=C(Cc1ccccc1)NN1C(=O)/C(=C\c2cccc(O)c2)SC1=Nc1ccccc1 | > 158 µM | 102 µM | – |
| OC(CBr)C(O)C(O)C(O)CBr (configuration not stated) | – | – | inactive |
| O=c1[nH][n+]([O-])cc2c(C(O)=C(O)O)c[nH]c12 | – | – | inactive |
| CCOC(=O)c1c(NC(=O)c2cccs2)sc2c1CCCC2 | > 151 µM | > 151 µM | – |
| COC(=O)CCC1=NOC(CC2CC(CCC(=O)OC)=NO2)C1 (configuration not stated) | – | – | inactive |
| C=C(C)C1CC2=C(C(=O)OC)C=C(O2)C(C(=C)C)[C@@H]2OC(=O)/C(=C\C1O)[C@H]2N(C)C (some centres not stated) | > 20 µM | 5.01 µM | – |
| Cc1cn(C2CC3C(COC(=O)N3O)O2)c(=O)[nH]c1=O (configuration not stated) | 50.1 µM | > 200 µM | – |
| CN(C)CCNC(=O)c1nn(-c2ccccc2)c2c1CSc1ccccc1-2 | > 200 µM | 110 µM | – |
| CCO/C(CCn1[nH]c(=O)c(Cl)c(Cl)c1=O)=N\NC(=O)C(=O)NN | > 7.08 µM | > 7.08 µM | – |
| CCOC(=O)[C]1([Bi]([CH3])[CH3])N=NC(C(=O)OC)=C1C(=O)OC (configuration not stated) | 17.4 µM | 26.3 µM | – |
| CC(C)(Cc1ccccc1)C(=C=C=C=C(c1ccccc1)C(C)(C)Cc1ccccc1)c1ccccc1 | > 46.8 µM | > 46.8 µM | – |
| CCOC(=O)C#CC(=O)OCC | > 200 µM | 15.1 µM | – |

| Compound | EC50 | IC50 | outcome |
| --- | --- | --- | --- |
| C[C@@H]1C=C[C@@H]2COC(=O)C2=C[C@@H]1c1ccccc1 | – | – | inactive |
| CCC1(CC)CC(=NNS(=O)(=O)c2ccc(C)cc2)C1 | – | – | inactive |
| CCOC(=O)c1[nH]n(-c2ccccc2)c(=O)c1/C=N/C(=S)NNC(C)=O | – | 138 µM | inactive |
| O/N=C/c1cc(I)cc(I)c1O | > 66.1 µM | 33.9 µM | – |
| CC(C)C1(O)C(c2ccccc2)=C(c2ccccc2)C(c2ccccc2)=C1c1ccccc1 | – | – | inactive |
| COC(=O)/C=C\C(=O)/C=C/COC(=O)c1ccccc1 | > 132 µM | 20.9 µM | – |
| S=P1(Oc2ccccc2)OCCO1 | > 617 µM | > 617 µM | – |
| CC(C)(C)OC(=O)N1CC(C)(C)N2C(=O)C3(CCCO3)C12 (configuration not stated) | 33.9 µM | 347 µM | – |
| Cc1cc2oc(=O)cc(C)c2c(=O)o1 | > 200 µM | > 200 µM | – |
| FC1OC2OC1C(OCc1ccccc1)C(OCc1ccccc1)C2OCc1ccccc1 (configuration not stated) | > 6.03 µM | > 6.03 µM | – |
| CCc1c(Cc2cc(C)cc(C)c2)n(COCCO[Si](C)(C)C(C)(C)C)c(=O)[nH]c1=O | 0.646 µM | 11.5 µM | – |
| Cn1ccc(C(=O)NCCOCCNC(=O)c2ccn(C)c(=O)c2O)c(O)c1=O | > 50.1 µM | > 50.1 µM | – |
| CCC(COC(=O)CC[C@@H](NC(=O)C(C)NC(=O)C(C)OC1C(O)C(CO)OC(OCc2ccccc2)C1NC(C)=O)C(N)=O)NC1c2ccccc2Nc2cccc([N+](=O)[O-])c21 (some centres not stated) | > 200 µM | 145 µM | – |
| CCOC(=O)c1c[nH]cc1-c1cn(S(=O)(=O)c2ccccc2)cc1C | > 200 µM | 50.1 µM | – |
| CSc1nc(C)c(CCOC(C)=O)c(N=P(c2ccccc2)(c2ccccc2)c2ccccc2)n1 | > 200 µM | 28.8 µM | – |
| N#CC(C#N)=CNC(=S)c1ccncc1 | > 200 µM | 166 µM | – |
| COc1cccc(/C=C2\SC(=S)N(/C=C3\C(=O)Oc4ccccc4C3=O)C2=O)c1O | > 200 µM | 70.8 µM | – |
| COc1ccc(C23OCCN2C(=O)c2ccccc23)cc1 (configuration not stated) | > 200 µM | 19.1 µM | – |
| CC(=O)OC(OC(C)=O)c1c2ccccc2cc2ccccc12 | > 200 µM | 9.77 µM | – |
| C#CCN1C(=O)c2ccccc2S1(=O)=O | > 200 µM | > 200 µM | – |
| OCC(c1ccccc1)[P+](c1ccccc1)(c1ccccc1)c1ccccc1 (configuration not stated) | > 200 µM | 11.2 µM | – |
| CCC1NC2CC3(C(=O)N(OC)c4ccccc43)C3CC1C2CO3 (configuration not stated) | > 269 µM | > 269 µM | – |

| Compound | EC50 | IC50 | outcome |
| --- | --- | --- | --- |
| COc1ccc2c(c1)OC(OC)(c1ccc(OC)c(OC)c1)C(O)(OC)C2=O (configuration not stated) | > 200 µM | 11.2 µM | – |
| CCOC(=O)c1c(-c2ccccc2)c(-c2ccccc2)cn1C | > 200 µM | 46.8 µM | – |
| Cn1c(=O)c2sc3c4sc5c(=O)n(C)c6ccccc6c5c4sc3c2c2ccccc21 | > 200 µM | > 200 µM | – |
| CN1C(=O)C(O)CC1c1ccc(C(F)(F)F)cc1 (configuration not stated) | – | – | inactive |
| NNC(=S)NN/C=C(\C=Nc1ccccc1)[N+](=O)[O-] | > 178 µM | 155 µM | – |
| CC1SC(c2ccccc2)N(Nc2c3ccccc3nc3ccccc23)C1=O (configuration not stated) | > 67.6 µM | > 67.6 µM | – |
| OCCCN=C1N=C(Cl)/C(=C\c2ccccc2)N1 | > 200 µM | > 200 µM | – |
| [O-][n+]1onc(-c2ccccc2)c1-c1ccccc1 | > 151 µM | > 151 µM | – |
| CC(=O)/C(=C/c1ccc([N+](=O)[O-])cc1)C(=O)c1ccccc1 | > 87.1 µM | 16.6 µM | – |
| O=C(/C=C/c1ccccc1)c1c2ccccc2cc2ccccc12 | > 8.91 µM | > 8.91 µM | – |
| COc1c(Cl)cc(S(=O)OC)cc1Cl (configuration not stated) | – | – | inactive |
| COc1ccc(-n2c(SCC(=O)NC(=O)Nc3ccccc3)nc3c(Br)cc(Br)cc3c2=O)cc1 | > 200 µM | > 200 µM | – |
| Cc1nc2c(nc1C)C(=O)C(N1CCCCC1)=CC2=O | – | – | inactive |
| NNS(=O)(=O)c1ccc(OCC(=O)O)cc1 | > 200 µM | 182 µM | – |
| CC1CC(C)CC(C)C(O)/C(C#N)=C/C=C/CC(C2CCCC2C(=O)O)OC(=O)CC(O)C(C)C1 (configuration not stated) | > 2.57 µM | 0.00575 µM | – |
| CCOP(=O)(OCC)C(C)(C)OC(=O)NC(F)(F)F | > 200 µM | > 200 µM | – |
| O=[As](O)(O)c1ccc(N=Nc2ccc(O)cc2)cc1 | > 200 µM | 138 µM | – |
| CCCC(O)CNCc1ccc(N(C)C)cc1 (configuration not stated) | – | – | inactive |
| COC(=O)/C(=N/Nc1cccc(Cl)c1)C(C(=O)C(=O)Nc1cccc(Cl)c1C)c1nc2ccccc2nc1C (configuration not stated) | > 12.9 µM | > 12.9 µM | – |
| COc1ccc(N2C(=O)/C(=C/c3ccc(N(CCC#N)CCC#N)cc3)N=C2c2ccccc2)c(OC)c1 | > 200 µM | 50.1 µM | – |
| C=CCNC(=O)CN1NN=C(c2ccccc2)N1 | > 107 µM | 93.3 µM | – |
